# In patent publication US10065926B2, “Use of substituted dihydrooxindolylsulfonamides, or the salts thereof, for increasing the stress tolerance of plants” (BAYER CROPSCIENCE AKTIENGESELLSCHAFT, priority 2013, dated 2018):
# Target: T1, phosphatase ABI1 via the co-regulator RCAR11/PYR1 (Arabidopsis thaliana, UniProt O49686+P49597)
# T1 sequence (P49597 1-434): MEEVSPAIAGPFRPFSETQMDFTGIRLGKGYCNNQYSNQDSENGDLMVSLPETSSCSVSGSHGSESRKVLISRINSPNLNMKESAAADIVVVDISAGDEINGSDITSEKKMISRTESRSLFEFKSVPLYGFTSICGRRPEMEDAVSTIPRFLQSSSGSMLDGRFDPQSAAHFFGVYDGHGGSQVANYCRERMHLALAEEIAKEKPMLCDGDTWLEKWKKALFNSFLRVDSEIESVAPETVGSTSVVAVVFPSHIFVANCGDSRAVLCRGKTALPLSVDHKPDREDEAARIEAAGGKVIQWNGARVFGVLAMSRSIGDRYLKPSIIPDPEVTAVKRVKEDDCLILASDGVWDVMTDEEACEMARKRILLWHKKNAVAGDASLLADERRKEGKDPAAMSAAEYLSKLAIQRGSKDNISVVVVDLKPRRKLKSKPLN
# T1 sequence (O49686 1-191): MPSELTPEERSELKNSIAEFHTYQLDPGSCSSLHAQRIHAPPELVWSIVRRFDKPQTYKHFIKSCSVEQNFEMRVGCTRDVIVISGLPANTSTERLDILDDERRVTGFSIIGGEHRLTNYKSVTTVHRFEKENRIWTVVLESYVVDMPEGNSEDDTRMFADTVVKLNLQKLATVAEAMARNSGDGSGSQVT
# Assay: In vitro inhibition of phosphatase ABI1 via co-regulator RCAR11/PYR1, MUP dephosphorylation, fluorescence
# Type: biochemical
# Details: at a concentration of 5 mM of the substance in a solution of DMSO and water; 35° C., 20 minutes
# Text: Effects of the phytohormone abscisic acid (ABA) on the behavior of plants under abiotic stress and the mechanism of action of ABA are described in the literature (cf. Abrams et al., WO97/23441, Cutler, Park et al. Science, 2009, 324, 1068; Grill et al. Science, 2009, 324, 1064; Tanokura et al. Biophysics, 2011, 7, 123; Schroeder et al. Plant J. 2010, 61, 290). Therefore, it is possible with the aid of a suitable in vitro test system to derive a correlation between the action of ABA and the stress response of a plant under abiotic stress. In the event of water deficiency (drought stress), plants form the phytohormone abscisic acid (ABA). This binds, along with a co-regulator (Regulatory Component of ABA-Receptor=RCAR according to Grill et al. Science, 2009, 324, 1064 or PYR/PYL according to Cutler et al. Science, 2009, 324, 1068), to a phosphatase (e.g. ABI1, a type 2C protein phosphatase, also abbreviated to PP2C) and inhibits its activity. […] For the determination of activity, the dephosphorylation of 4-methylumbelliferyl phosphate (MUP) was measured at 460 nm. […]
# Enzyme buffer mix and substrate mix were made up 5 minutes prior to the addition and warmed to a temperature of 35° C. […] Finally, a relative fluorescence measurement was made at 35° C. with a BMG Labtech “POLARstar Optima” microplate reader using a 340/10 nm excitation filter and a 460 nm emission filter. […]
structure (smiles),measurement,value
CC1=CC(=O)CC(C)(C)[C@@]1(O)/C=C/C(C)=C\C(=O)O [abscisic acid],ABI1 inhibition,++++ (≥90% inhibition)
